Earlier results on 1 compound are cited in US7994210B2, “Method of treating Down Syndrome” (priority 2004, dated 2011).

Like-named read-outs stand apart in the source and are kept apart here.

Series [1] has as its system beta-amyloid precursor protein (beta-APP).
In another series the target is acetylcholinesterase (Homo sapiens, UniProt P22303).
Setting [2] is: listed as (+)9-N-phenylcarbinol eseroline.

acetylcholinesterase, sequence (P22303 32-614, species assumed): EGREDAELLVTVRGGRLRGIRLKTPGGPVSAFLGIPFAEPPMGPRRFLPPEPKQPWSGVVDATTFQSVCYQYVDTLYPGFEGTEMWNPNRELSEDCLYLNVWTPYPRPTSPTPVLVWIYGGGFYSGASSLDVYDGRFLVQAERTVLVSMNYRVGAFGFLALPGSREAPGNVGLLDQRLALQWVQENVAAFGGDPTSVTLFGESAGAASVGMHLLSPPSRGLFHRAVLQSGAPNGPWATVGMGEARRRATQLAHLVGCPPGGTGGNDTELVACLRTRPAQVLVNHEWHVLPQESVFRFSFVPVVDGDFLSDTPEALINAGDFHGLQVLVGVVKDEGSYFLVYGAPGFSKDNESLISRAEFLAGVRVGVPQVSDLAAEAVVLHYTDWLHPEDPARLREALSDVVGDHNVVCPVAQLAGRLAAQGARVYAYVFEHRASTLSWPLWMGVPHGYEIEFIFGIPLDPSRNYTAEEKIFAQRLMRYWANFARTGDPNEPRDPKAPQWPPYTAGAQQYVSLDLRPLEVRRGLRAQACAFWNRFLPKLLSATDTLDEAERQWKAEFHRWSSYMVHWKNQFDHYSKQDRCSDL

On to `CN1CC[C@]2(C)c3cc(OC(=O)Nc4ccccc4)ccc3N(C)[C@H]12` [(+)-Phenserine, (+)9-N-phenylcarbinol eseroline], for which the figures for the “production/formation of β-APP” value in series [1] and in series [1] (setting [2]) were “reduces the production of β-APP” and “inhibits β-APP production”, respectively. Further, the acetylcholinesterase inhibitor activity result at acetylcholinesterase is reported as “lacking significant acetylcholinesterase inhibitor activity”; on acetylcholinesterase (setting [2]), “lacks anticholinesterase activity”.
